Laboratory results from patent US20160009693A1, “HERBICIDAL COMPOUNDS” (SYNGENTA LIMITED, priority 2013, published 2016).

Columns and labels:
Assay type in all cases: in vivo
Conditions in all cases: applied at 1000 g/h, evaluated after 13 days
[1] = tested on: Echinochloa crus-galli (ECHCG); experiment: Herbicidal glasshouse test, post-emergence, ECHCG
Protocol: (§1) Seeds of a variety of test species are sown in standard soil in pots (Alopecurus myosuroides (ALOMY), Setaria faberi (SETFA), Echinochloa crus-galli (ECHCG), Solanum nigrum (SOLNI), Amaranthus retoflexus (AMARE), Ipomoea hederacea (IPOHE)). After cultivation for one day (pre-emergence) or after 8 days cultivation (post-emergence) under controlled conditions in a glasshouse (at 24/16° C., day/night; 14 hours light; 65% humidity), the plants are sprayed with an aqueous spray solution derived from the formulation of the technical active ingredient in acetone / water (50:50) solution containing 0.5% Tween 20 (polyoxyethelyene sorbitan monolaurate, CAS RN 9005-64-5). […] The test plants are then grown in a glasshouse under controlled conditions in a glasshouse (at 24/16° C., day/night; 14 hours light; 65% humidity) and watered twice daily. After 13 days for pre and post-emergence, the test is evaluated for the percentage damage caused to the plant. The biological activities are shown in the following table on a five point scale (5=80-100%; 4=60-79%; 3=40-59%; 2=20-39%; 1=0-19%).

[2] = tested on: Echinochloa crus-galli (ECHCG); experiment: Herbicidal glasshouse test, pre-emergence, ECHCG
Protocol: as §1

Setaria faberi (SETFA) [3] = experiment: Herbicidal glasshouse test, post-emergence, SETFA
Protocol: as §1

[4] = tested on: Ipomoea hederacea (IPOHE); experiment: Herbicidal glasshouse test, post-emergence, IPOHE
Protocol: as §1

[5] = tested on: Amaranthus retoflexus (AMARE); experiment: Herbicidal glasshouse test, pre-emergence, AMARE
Protocol: as §1

[6] = tested on: Alopecurus myosuroides (ALOMY); experiment: Herbicidal glasshouse test, pre-emergence, ALOMY
Protocol: as §1

Setaria faberi (SETFA) [7] = experiment: Herbicidal glasshouse test, pre-emergence, SETFA
Protocol: as §1

[8] = tested on: Ipomoea hederacea (IPOHE); experiment: Herbicidal glasshouse test, pre-emergence, IPOHE
Protocol: as §1

Solanum nigrum (SOLNI) [9] = experiment: Herbicidal glasshouse test, post-emergence, SOLNI
Protocol: as §1

[10] = tested on: Amaranthus retoflexus (AMARE); experiment: Herbicidal glasshouse test, post-emergence, AMARE
Protocol: as §1

[11] = tested on: Alopecurus myosuroides (ALOMY); experiment: Herbicidal glasshouse test, post-emergence, ALOMY
Protocol: as §1

Solanum nigrum (SOLNI) [12] = experiment: Herbicidal glasshouse test, pre-emergence, SOLNI
Protocol: as §1

Cn1nnnc1NC(=O)c1nn(C)c(=O)n(Cc2ccc(F)cc2)c1=O [Compound 1.073]
5 (5=80-100%): PRE Application ECHCG, percentage damage (five point scale) [2] | POST Application IPOHE, percentage damage (five point scale) [4] | PRE Application AMARE, percentage damage (five point scale) [5] | PRE Application ALOMY, percentage damage (five point scale) [6] | PRE Application IPOHE, percentage damage (five point scale) [8] | POST Application SOLNI, percentage damage (five point scale) (Solanum nigrum (SOLNI) [9]) | POST Application AMARE, percentage damage (five point scale) [10] | PRE Application SOLNI, percentage damage (five point scale) (Solanum nigrum (SOLNI) [12])
3 (3=40-59%): POST Application ECHCG, percentage damage (five point scale) [1]
2 (2=20-39%): POST Application SETFA, percentage damage (five point scale) (Setaria faberi (SETFA) [3]) | POST Application ALOMY, percentage damage (five point scale) [11]
1 (1=0-19%): PRE Application SETFA, percentage damage (five point scale) (Setaria faberi (SETFA) [7])

Cn1nnnc1NC(=O)c1nn(C)c(=O)n(-c2ccc([N+](=O)[O-])cc2)c1=O [Compound 1.031]
4 (4=60-79%): PRE Application ECHCG, percentage damage (five point scale) [2] | PRE Application SETFA, percentage damage (five point scale) (Setaria faberi (SETFA) [7]) | PRE Application IPOHE, percentage damage (five point scale) [8] | POST Application ALOMY, percentage damage (five point scale) [11]
2 (2=20-39%): POST Application IPOHE, percentage damage (five point scale) [4]
5 (5=80-100%): POST Application ECHCG, percentage damage (five point scale) [1] | POST Application SETFA, percentage damage (five point scale) (Setaria faberi (SETFA) [3]) | PRE Application AMARE, percentage damage (five point scale) [5] | POST Application SOLNI, percentage damage (five point scale) (Solanum nigrum (SOLNI) [9]) | POST Application AMARE, percentage damage (five point scale) [10] | PRE Application SOLNI, percentage damage (five point scale) (Solanum nigrum (SOLNI) [12])
3 (3=40-59%): PRE Application ALOMY, percentage damage (five point scale) [6]

Cn1nnnc1NC(=O)c1nn(C)c(=O)n(Cc2ccc(Cl)c(Cl)c2)c1=O [Compound 1.068]
5 (5=80-100%): POST Application IPOHE, percentage damage (five point scale) [4] | PRE Application AMARE, percentage damage (five point scale) [5] | POST Application SOLNI, percentage damage (five point scale) (Solanum nigrum (SOLNI) [9]) | POST Application AMARE, percentage damage (five point scale) [10] | PRE Application SOLNI, percentage damage (five point scale) (Solanum nigrum (SOLNI) [12])
3 (3=40-59%): PRE Application ALOMY, percentage damage (five point scale) [6] | POST Application ALOMY, percentage damage (five point scale) [11]
1 (1=0-19%): POST Application SETFA, percentage damage (five point scale) (Setaria faberi (SETFA) [3]) | PRE Application SETFA, percentage damage (five point scale) (Setaria faberi (SETFA) [7]) | PRE Application IPOHE, percentage damage (five point scale) [8]
2 (2=20-39%): PRE Application ECHCG, percentage damage (five point scale) [2]
4 (4=60-79%): POST Application ECHCG, percentage damage (five point scale) [1]

Cn1nnnc1NC(=O)c1nn(C)c(=O)n(-c2cccc(Cl)c2)c1=O [Compound 1.019]
5 (5=80-100%): POST Application ECHCG, percentage damage (five point scale) [1] | PRE Application ECHCG, percentage damage (five point scale) [2] | POST Application SETFA, percentage damage (five point scale) (Setaria faberi (SETFA) [3]) | POST Application IPOHE, percentage damage (five point scale) [4] | PRE Application AMARE, percentage damage (five point scale) [5] | PRE Application ALOMY, percentage damage (five point scale) [6] | PRE Application SETFA, percentage damage (five point scale) (Setaria faberi (SETFA) [7]) | PRE Application IPOHE, percentage damage (five point scale) [8] | POST Application SOLNI, percentage damage (five point scale) (Solanum nigrum (SOLNI) [9]) | POST Application AMARE, percentage damage (five point scale) [10] | POST Application ALOMY, percentage damage (five point scale) [11] | PRE Application SOLNI, percentage damage (five point scale) (Solanum nigrum (SOLNI) [12])

Cn1nnnc1NC(=O)c1nn(C)c(=O)n(Cc2ccccc2[N+](=O)[O-])c1=O [Compound 1.060]
5 (5=80-100%): POST Application ECHCG, percentage damage (five point scale) [1] | PRE Application ECHCG, percentage damage (five point scale) [2] | POST Application SETFA, percentage damage (five point scale) (Setaria faberi (SETFA) [3]) | POST Application IPOHE, percentage damage (five point scale) [4] | PRE Application AMARE, percentage damage (five point scale) [5] | PRE Application ALOMY, percentage damage (five point scale) [6] | PRE Application SETFA, percentage damage (five point scale) (Setaria faberi (SETFA) [7]) | PRE Application IPOHE, percentage damage (five point scale) [8] | POST Application SOLNI, percentage damage (five point scale) (Solanum nigrum (SOLNI) [9]) | POST Application AMARE, percentage damage (five point scale) [10] | POST Application ALOMY, percentage damage (five point scale) [11] | PRE Application SOLNI, percentage damage (five point scale) (Solanum nigrum (SOLNI) [12])

Cn1nnnc1NC(=O)c1nn(C)c(=O)n(-c2ccc(Cl)cc2)c1=O [Compound 1.024]
5 (5=80-100%): POST Application ECHCG, percentage damage (five point scale) [1] | PRE Application ECHCG, percentage damage (five point scale) [2] | POST Application SETFA, percentage damage (five point scale) (Setaria faberi (SETFA) [3]) | POST Application IPOHE, percentage damage (five point scale) [4] | PRE Application AMARE, percentage damage (five point scale) [5] | PRE Application ALOMY, percentage damage (five point scale) [6] | PRE Application SETFA, percentage damage (five point scale) (Setaria faberi (SETFA) [7]) | PRE Application IPOHE, percentage damage (five point scale) [8] | POST Application SOLNI, percentage damage (five point scale) (Solanum nigrum (SOLNI) [9]) | POST Application AMARE, percentage damage (five point scale) [10] | POST Application ALOMY, percentage damage (five point scale) [11] | PRE Application SOLNI, percentage damage (five point scale) (Solanum nigrum (SOLNI) [12])

Cc1cc(Cn2c(=O)c(C(=O)Nc3nnnn3C)nn(C)c2=O)cc(C)c1F [Compound 1.078]
2 (2=20-39%): PRE Application ECHCG, percentage damage (five point scale) [2] | POST Application SETFA, percentage damage (five point scale) (Setaria faberi (SETFA) [3]) | PRE Application ALOMY, percentage damage (five point scale) [6] | PRE Application IPOHE, percentage damage (five point scale) [8] | POST Application ALOMY, percentage damage (five point scale) [11]
5 (5=80-100%): POST Application IPOHE, percentage damage (five point scale) [4] | PRE Application AMARE, percentage damage (five point scale) [5] | POST Application SOLNI, percentage damage (five point scale) (Solanum nigrum (SOLNI) [9]) | POST Application AMARE, percentage damage (five point scale) [10] | PRE Application SOLNI, percentage damage (five point scale) (Solanum nigrum (SOLNI) [12])
1 (1=0-19%): PRE Application SETFA, percentage damage (five point scale) (Setaria faberi (SETFA) [7])
4 (4=60-79%): POST Application ECHCG, percentage damage (five point scale) [1]

Cn1nnnc1NC(=O)c1nn(C)c(=O)n(Cc2cc(F)ccc2F)c1=O [Compound 1.061]
5 (5=80-100%): POST Application ECHCG, percentage damage (five point scale) [1] | PRE Application ECHCG, percentage damage (five point scale) [2] | POST Application SETFA, percentage damage (five point scale) (Setaria faberi (SETFA) [3]) | POST Application IPOHE, percentage damage (five point scale) [4] | PRE Application AMARE, percentage damage (five point scale) [5] | PRE Application ALOMY, percentage damage (five point scale) [6] | PRE Application SETFA, percentage damage (five point scale) (Setaria faberi (SETFA) [7]) | PRE Application IPOHE, percentage damage (five point scale) [8] | POST Application SOLNI, percentage damage (five point scale) (Solanum nigrum (SOLNI) [9]) | POST Application AMARE, percentage damage (five point scale) [10] | POST Application ALOMY, percentage damage (five point scale) [11] | PRE Application SOLNI, percentage damage (five point scale) (Solanum nigrum (SOLNI) [12])

Cn1nnnc1NC(=O)c1nn(C)c(=O)n(Cc2ccc(OC(F)F)cc2)c1=O [Compound 1.066]
1 (1=0-19%): POST Application SETFA, percentage damage (five point scale) (Setaria faberi (SETFA) [3]) | PRE Application SETFA, percentage damage (five point scale) (Setaria faberi (SETFA) [7])
5 (5=80-100%): POST Application ECHCG, percentage damage (five point scale) [1] | PRE Application ECHCG, percentage damage (five point scale) [2] | POST Application IPOHE, percentage damage (five point scale) [4] | PRE Application AMARE, percentage damage (five point scale) [5] | PRE Application ALOMY, percentage damage (five point scale) [6] | PRE Application IPOHE, percentage damage (five point scale) [8] | POST Application SOLNI, percentage damage (five point scale) (Solanum nigrum (SOLNI) [9]) | POST Application AMARE, percentage damage (five point scale) [10] | POST Application ALOMY, percentage damage (five point scale) [11] | PRE Application SOLNI, percentage damage (five point scale) (Solanum nigrum (SOLNI) [12])
